Experimental data reported in patent US11992535B2, “Compounds and probes for imaging huntingtin protein” (CHDI Foundation, Inc., priority 2019, dated 2024).
Where two headings read alike, the source gives them in different places.

Target: aggregated MBP-HTT(1-89)Q46-His(6×) (Exonl-Q46) protein (Q46 protein aggregates) (Homo sapiens (Human), UniProt P42858, INS38QQQQQQQQQQQQQQQQQQQQQQQQQ)
Experiment: Q46 Radioligand Binding Assay
Details: read-out: Q46_RBA EC50_
Experimental: Q46 Radioligand Binding Assay
For radioligand binding assays (RBA) MBP-HTT(1-89)Q46-His(6×) (“Exonl-Q46”) protein was generated based on a previous publication (Scherzinger et al. Cell, Vol. 90, 549-558, Aug. 8, 1997). For experiments 30 μM MBP-Exonl-Q46 was incubated with 150 μg/mL thrombin in assay buffer (150 mM NaCl, 50 mM Tris pH 8.0) and 2 mM CaCl2 for 16 hours at 37° C. Aggregated Exonl-Q46 was pelleted by centrifugation for 5 minutes at 13,000 rpm in a bench top centrifuge and re-dissolved in the same volume of assay buffer. Test compounds were prepared by titration in DMSO at 11 concentrations from 63 μM to 2 nM. For the RBA, Q46 protein aggregates and test compounds were pre-incubated in assay buffer for 20 minutes at room temperature, in 100 μL/well in a 96-well plate (pp, round bottom). Then, ligand was added in 50 μL/well and incubated for 60 minutes at 37° C. Final assay concentrations were 1 μM to 30 μM test compound, 1 μM Exonl-Q46 protein (equivalent monomer concentration) and 0.3 nM ligand [^3H3-methyl]-5-((5-methoxypyridin-2-yl)methoxy)-2-(pyrazin-2-yl)benzo[d]oxazole. Samples were transferred onto GF/B filter plates and washed 2× with 200 μL PBS using a Filtermate Harvester. After drying filter plates for 1 hour at 55° C., the back of the plates were sealed with foil and 30 μL/well scintillation fluid (Packard MicroScint 40) added, incubated for 15 minutes in the dark and counted in a MicroBeta reader. For analysis, replicate data from independent assay plates were normalized towards 0% and 100% inhibition using control wells of vehicle (0% inhibition) and 1 μM unlabelled [^3H3-methyl]-5-((5-methoxypyridin-2-yl)methoxy)-2-(pyrazin-2-yl)benzo[d]oxazole (100% inhibition). IC50 values were determined with a sigmoidal inhibition model with four variables (top, bottom, slope, IC50) in a global fit using the normalized replicate data.

[1] = displacement of 0.3 nM [3H3-methyl]-5-((5-methoxypyridin-2-yl)methoxy)-2-(pyrazin-2-yl)benzo[d]oxazole from 1 μM Exonl-Q46 aggregates, method calls the values IC50
[2] = same radioligand displacement on Exonl-Q46 aggregates

Chain of aggregated MBP-HTT(1-89)Q46-His(6×) (Exonl-Q46) protein (Q46 protein aggregates) (P42858 other isoform, or with tags, fused parts or gaps, stated change not applied): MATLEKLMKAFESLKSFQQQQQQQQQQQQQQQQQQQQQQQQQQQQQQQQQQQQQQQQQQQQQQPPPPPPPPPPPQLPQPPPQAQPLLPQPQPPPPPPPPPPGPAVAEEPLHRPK

Compound	EC50 [1] [nM]	EC50 [2] [nM]
COc1ccc(C(=O)N2CCc3ccc(OCc4ccc(OCCF)cn4)cc3C2)cn1 [Example 38, (7-((5-(2-Fluoroethoxy)pyridin-2-yl)methoxy)-3,4-dihydroisoquino-lin-2(1H)-yl)(6-methoxypyridin-3-yl)methanone]	1.25	< 100
COc1ccc(C(=O)N2CCc3ccc(OCc4ccc(OCF)cn4)cc3C2)cn1 [Example 37, (7-((5-(Fluoromethoxy)pyridin-2-yl)methoxy)-3,4-dihydroisoquino-lin-2(1H)-yl)(6-methoxypyridin-3-yl)methanone]	2.6	< 100
COc1ccc(C(=O)Nc2ccc3c(c2)CN(c2ccc(OC)nc2)CC3)nc1 [Example 11, 5-Methoxy-N-[2-(6-methoxypyridin-3-yl)-1,2,3,4-tetrahydroisoquinolin-7-yl]pyridine-2-carboxamide]	1.3	< 100
COc1ccc(COc2ccc3c(c2)CN(C(=O)c2ccc(=O)n(C)c2)CC3)nc1 [Example 41, 5-(7-((5-Methoxypyridin-2-yl)methoxy)-1,2,3,4-tetrahydroisoquin-oline-2-carbonyl)-1-methylpyridin-2(1H)-one]	23.5	< 100
COc1ccc(COc2ccc3c(n2)CN(C(=O)c2ccc(OC)nc2)CC3)nc1 [Example 26, 2-[(5-Methoxypyridin-2-yl)methoxy]-7-(6-methoxypyridine-3-carbonyl)-5,6,7,8-tetrahydro-1,7-naphthyridine]	39.3	< 100
COc1ccc(COc2ccc3c(c2)CN(C(=O)N2CCN(C)CC2)CC3)nc1 [Example 4, 7-[(5-Methoxypyridin-2-yl)methoxy]-2-(4-methylpiperazine-1-carbonyl)-1,2,3,4-tetrahydroisoquinoline]	73.2	< 100
COc1ccc(COc2ccc3c(c2)C(C)N(C(=O)c2ccc(OC)nc2)CC3)nc1 (stereo not drawn) [Example 9, 7-[(5-Methoxypyridin-2-yl)methoxy]-2-(6-methoxypyridine-3-carbonyl)-1-methyl-1,2,3,4-tetrahydroisoquinoline]	14.5	< 100
COc1ccc(COc2cc3c(cn2)CCN(C(=O)c2ccc(OC)nc2)C3)nc1 [Example 16, 7-[(5-Methoxypyridin-2-yl)methoxy]-2-(6-methoxypyridine-3-carbonyl)-1,2,3,4-tetrahydro-2,6-naphthyridine]	39.5	< 100

More lines, now with the values ahead:

EC50 [1] [nM]	EC50 [2] [nM]	Compound
8.48	< 100	COc1ccc(COc2ccc3c(c2)CCN(C(=O)c2ccc(OC)nc2)C3)nc1 [Example 1.4]
46.4	< 100	COc1ccc(COc2ccc3c(c2)CCN(C(=O)c2ccc(=O)n(C)n2)C3)nc1 [Example 1.3]
2.02	< 100	COc1ccc(COc2ccc3c(c2)CN(c2cccc(OC)n2)CC3)nc1 [Example 8.2]
23	< 100	COc1ccc(COc2cnc3c(c2)CN(C(=O)c2ccnc(OCCF)c2)CC3)nc1 [Example 1.23]
16.3	< 100	COc1ccc(COc2cnc3c(c2)CN(C(=O)c2ccnc(OC)c2)CC3)nc1 [Example 1.21]
86	< 100	COc1ccc(COc2ccc3c(c2)CN(c2ccc(=O)n(C)c2)CC3)nc1 [Example 29.1]
–	> 500	COc1ccc(Cn2c3c(ccc2=O)CCN(C(=O)c2ccc(OC)nc2)C3)nc1 [Example 26.1]
13.4	< 100	COc1ccc(COc2ccc3c(c2)CN(c2ccc(=O)n(C)n2)CC3)nc1 [Example 27.1]
2.1	< 100	COc1ccc(COc2ccc3c(c2)CN(C(=O)c2cnc(OC)nc2)CC3)nc1 [Example 1.22]
1.97	< 100	COc1ccc(COc2cnc3c(c2)CN(c2ncc(OC)cn2)CC3)nc1 [Example 6.2]
951	> 500	COc1ccc(COc2ccc3c(c2)CN(C(=O)C2CCN(C)CC2)CC3)nc1 [Example 1.15]
43	< 100	COCCn1cc(C(=O)N2CCc3ncc(OCc4ccc(OC)cn4)cc3C2)ccc1=O [Example 24.4]
